Assays:
Alternaria sobani [1] = assay: Inhibition of phytopathogenic fungi, field test on affected potato plants; assay type: in vivo; settings: 5 m^2 plots of affected potato plants sprayed
Text: (§1) For field tests the plots of 5 m^2 in size with potato plants affected by Fusarium moniliforme, Venturia inaequalis, Rhyzoctonia violaceae, Botrytis cinereae, Verticillium albo-atrum, Diplodia zeae, Fusarium oxysporum, Rhoma betae, Rhyzoctonia aderholdii, Aspergillus niger, Alternaria sobani, Botrytis allii, Aspergillus fumigatis, Fusarium culmorum, Penicillium cyclopium were sprayed with the fungicide of the invention. To compare, the similar plots of the affected potato plants were aprayed with the known compositions indicated above.

Verticillium albo-atrum [2] = assay: as above; assay type: in vivo; settings: 5 m^2 plots of affected potato plants sprayed
Text: as §1

Fusarium moniliforme [3] = assay: as above; assay type: in vivo; settings: 5 m^2 plots of affected potato plants sprayed
Text: as §1

Fusarium oxysporum [4] = assay: as above; assay type: in vivo; settings: 5 m^2 plots of affected potato plants sprayed
Text: as §1

Venturia inaequalis [5] = assay: as above; assay type: in vivo; settings: 5 m^2 plots of affected potato plants sprayed
Text: as §1

Fusarium culmorum [6] = assay: as above; assay type: in vivo; settings: 5 m^2 plots of affected potato plants sprayed
Text: as §1

Aspergillus niger [7] = assay: as above; assay type: in vivo; settings: 5 m^2 plots of affected potato plants sprayed
Text: as §1

Botrytis cinereae [8] = assay: as above; assay type: in vivo; settings: 5 m^2 plots of affected potato plants sprayed
Text: as §1

Penicillium cyclopium [9] = assay: as above; assay type: in vivo; settings: 5 m^2 plots of affected potato plants sprayed
Text: as §1

Diplodia zeae [10] = assay: as above; assay type: in vivo; settings: 5 m^2 plots of affected potato plants sprayed
Text: as §1

Botrytis allii [11] = assay: as above; assay type: in vivo; settings: 5 m^2 plots of affected potato plants sprayed
Text: as §1

Rhyzoctonia violaceae [12] = assay: as above; assay type: in vivo; settings: 5 m^2 plots of affected potato plants sprayed
Text: as §1

Rhoma betae [13] = assay: as above; assay type: in vivo; settings: 5 m^2 plots of affected potato plants sprayed
Text: as §1

Aspergillus fumigatis [14] = assay: as above; assay type: in vivo; settings: 5 m^2 plots of affected potato plants sprayed
Text: as §1

Rhyzoctonia aderholdii [15] = assay: as above; assay type: in vivo; settings: 5 m^2 plots of affected potato plants sprayed
Text: as §1

Solubility (qualitative) = settings: water, alcohols, acetone
Alternaria sobani [16] = assay: Inhibition of phytopathogenic fungi growth, laboratory test on potato-dextrose agar; assay type: cell-based; settings: active principle 0.01 % by mass in potato-dextrose agar
Protocol: (§2) A fungicidal composition based on this compound was prepared in the form of a 0.01% solution thereof in distilled water. A fungicidal action of the composition, according to the invention, was tested for inhibition of vegetative fungi growth such as Fusarium moniliforme, Ventura inaequalis, Rhyzoctonia ciolaceae, Botrytis cinereae, Verticillium albo-atrum, Diplodia zeae, Fusarium oxysporum, Rhoma betae, Rhyzoctonia aderholdii, Aspergillus niger, Alternaria sobani, Botrytis allii, Aspergillus fumigatis, Fusarium culmorum, Penicillium cyclopium affecting potato, sugar beet, cotton seeds either in laboratory or field conditions. For testing it to the Petri dishes containing potato-dextrose agar the composition of the invention was.added at the concentration of an active principle of 0.01 % by mass. The Petri dishes containing the same agar culture were inoculated with a mycelium of phytopathogenic fungi. For control dishes the phytopathogenic fungi were inoculated on agar without using the composition of the invention. A fungicidal effect of the composition, according to the invention was tested in comparison with the known fungicidal compositions based on 2,3-dichloro-1,4-naphthoquinone, zinc N,N'-ethylene-bis-dithiocarbamate and tetramethylthiuram disulphide.

Verticillium albo-atrum [17] = assay: as above; assay type: cell-based; settings: active principle 0.01 % by mass in potato-dextrose agar
Protocol: as §2

Fusarium moniliforme [18] = assay: as above; assay type: cell-based; settings: active principle 0.01 % by mass in potato-dextrose agar
Protocol: as §2

Fusarium oxysporum [19] = assay: as above; assay type: cell-based; settings: active principle 0.01 % by mass in potato-dextrose agar
Protocol: as §2

Venturia inaequalis [20] = assay: as above; assay type: cell-based; settings: active principle 0.01 % by mass in potato-dextrose agar
Protocol: as §2

Fusarium culmorum [21] = assay: as above; assay type: cell-based; settings: active principle 0.01 % by mass in potato-dextrose agar
Protocol: as §2

Aspergillus niger [22] = assay: as above; assay type: cell-based; settings: active principle 0.01 % by mass in potato-dextrose agar
Protocol: as §2

Botrytis cinereae [23] = assay: as above; assay type: cell-based; settings: active principle 0.01 % by mass in potato-dextrose agar
Protocol: as §2

Penicillium cyclopium [24] = assay: as above; assay type: cell-based; settings: active principle 0.01 % by mass in potato-dextrose agar
Protocol: as §2

Diplodia zeae [25] = assay: as above; assay type: cell-based; settings: active principle 0.01 % by mass in potato-dextrose agar
Protocol: as §2

Botrytis allii [26] = assay: as above; assay type: cell-based; settings: active principle 0.01 % by mass in potato-dextrose agar
Protocol: as §2

Rhyzoctonia violaceae [27] = assay: as above; assay type: cell-based; settings: active principle 0.01 % by mass in potato-dextrose agar
Protocol: as §2

Rhoma betae [28] = assay: as above; assay type: cell-based; settings: active principle 0.01 % by mass in potato-dextrose agar
Protocol: as §2

Aspergillus fumigatis [29] = assay: as above; assay type: cell-based; settings: active principle 0.01 % by mass in potato-dextrose agar
Protocol: as §2

Rhyzoctonia aderholdii [30] = assay: as above; assay type: cell-based; settings: active principle 0.01 % by mass in potato-dextrose agar
Protocol: as §2

Row | SMILES | Inhibition of growth of phytopathogenic fungi colonies, % Alternaria sobani test field (Alternaria sobani [1]) | Inhibition of growth of phytopathogenic fungi colonies, % Verticillium albo--atrum test field (Verticillium albo-atrum [2]) | Inhibition of growth of phytopathogenic fungi colonies, % Fusatium monili-forme test field (Fusarium moniliforme [3]) | Inhibition of growth of phytopathogenic fungi colonies, % Fusarium oxysporum test field (Fusarium oxysporum [4]) | Inhibition of growth of phytopathogenic fungi colonies, % Venturia inaequalis test field (Venturia inaequalis [5]) | Inhibition of growth of phytopathogenic fungi colonies, % Fusarium culmorum Tests field (Fusarium culmorum [6]) | Inhibition of growth of phytopathogenic fungi colonies, % Aspergillus niger test field (Aspergillus niger [7]) | Inhibition of growth of phytopathogenic fungi colonies, % Botrytis cinereae test field (Botrytis cinereae [8]) | Inhibition of growth of phytopathogenic fungi colonies, % Penicillium cyclopium Tests field (Penicillium cyclopium [9]) | Inhibition of growth of phytopathogenic fungi colonies, % Diplodia zeae test field (Diplodia zeae [10]) | Inhibition of growth of phytopathogenic fungi colonies, % Botrytis allii test field (Botrytis allii [11]) | Inhibition of growth of phytopathogenic fungi colonies, % Rhyzoctonia violaceae test field (Rhyzoctonia violaceae [12]) | Inhibition of growth of phytopathogenic fungi colonies, % Rhoma betae test field (Rhoma betae [13]) | Inhibition of growth of phytopathogenic fungi colonies, % Aspergillus fumigatis Tests field (Aspergillus fumigatis [14]) | Inhibition of growth of phytopathogenic fungi colonies, % Rhyzoctonia aderholdii test field (Rhyzoctonia aderholdii [15]) | solubility (Solubility (qualitative)) | Inhibition of growth of phytopathogenic fungi colonies, % Alternaria sobani test laboratory (Alternaria sobani [16]) | Inhibition of growth of phytopathogenic fungi colonies, % Verticillium albo--atrum test laboratory (Verticillium albo-atrum [17]) | Inhibition of growth of phytopathogenic fungi colonies, % Fusatium monili-forme test laboratory (Fusarium moniliforme [18]) | Inhibition of growth of phytopathogenic fungi colonies, % Fusarium oxysporum test laboratory (Fusarium oxysporum [19]) | other results
1 | O=C(NP(=O)(Nc1ccc(Br)cc1)Nc1ccc(Br)cc1)c1ccc(Br)cc1 [Example 15] | 98% | 100% | 99% | 81% | 98% | 100% | 98% | 98% | 89% | 98% | 96% | 99% | 98% | 80% | 99% | soluble in water, alcohols, acetone | 100% | 100% | 100% | 83% | Inhibition of growth of phytopathogenic fungi colonies, % Venturia inaequalis test laboratory (Venturia inaequalis [20]): 100%; Inhibition of growth of phytopathogenic fungi colonies, % Fusarium culmorum Tests laboratory (Fusarium culmorum [21]): 100%; Inhibition of growth of phytopathogenic fungi colonies, % Aspergillus niger test laboratory (Aspergillus niger [22]): 100%; Inhibition of growth of phytopathogenic fungi colonies, % Botrytis cinereae test laboratory (Botrytis cinereae [23]): 100%; Inhibition of growth of phytopathogenic fungi colonies, % Penicillium cyclopium Tests laboratory (Penicillium cyclopium [24]): 100%; Inhibition of growth of phytopathogenic fungi colonies, % Diplodia zeae test laboratory (Diplodia zeae [25]): 100%; Inhibition of growth of phytopathogenic fungi colonies, % Botrytis allii test laboratory (Botrytis allii [26]): 99%; Inhibition of growth of phytopathogenic fungi colonies, % Rhyzoctonia violaceae test laboratory (Rhyzoctonia violaceae [27]): 100%; Inhibition of growth of phytopathogenic fungi colonies, % Rhoma betae test laboratory (Rhoma betae [28]): 100%; Inhibition of growth of phytopathogenic fungi colonies, % Aspergillus fumigatis Tests laboratory (Aspergillus fumigatis [29]): 88%; Inhibition of growth of phytopathogenic fungi colonies, % Rhyzoctonia aderholdii test laboratory (Rhyzoctonia aderholdii [30]): 100%
2 | COP(=O)(NC(=O)C(Cl)(Cl)CCl)Nc1ccccc1 (stereo not drawn) [Example 11, methyl α, α , β-trichloropropyonylamidophosphate monoanilide] | 66% | 54% | 38% | 60% | 52% | 98% | 96% | 39% | 90% | 98% | 78% | 60% | 65% | 93% | 100% | soluble in water, alcohols, acetone | 69% | 56% | 39% | 62% | Inhibition of growth of phytopathogenic fungi colonies, % Venturia inaequalis test laboratory (Venturia inaequalis [20]): 54%; Inhibition of growth of phytopathogenic fungi colonies, % Fusarium culmorum Tests laboratory (Fusarium culmorum [21]): 100%; Inhibition of growth of phytopathogenic fungi colonies, % Aspergillus niger test laboratory (Aspergillus niger [22]): 100%; Inhibition of growth of phytopathogenic fungi colonies, % Botrytis cinereae test laboratory (Botrytis cinereae [23]): 43%; Inhibition of growth of phytopathogenic fungi colonies, % Penicillium cyclopium Tests laboratory (Penicillium cyclopium [24]): 95%; Inhibition of growth of phytopathogenic fungi colonies, % Diplodia zeae test laboratory (Diplodia zeae [25]): 100%; Inhibition of growth of phytopathogenic fungi colonies, % Botrytis allii test laboratory (Botrytis allii [26]): 78%; Inhibition of growth of phytopathogenic fungi colonies, % Rhyzoctonia violaceae test laboratory (Rhyzoctonia violaceae [27]): 62%; Inhibition of growth of phytopathogenic fungi colonies, % Rhoma betae test laboratory (Rhoma betae [28]): 67%; Inhibition of growth of phytopathogenic fungi colonies, % Aspergillus fumigatis Tests laboratory (Aspergillus fumigatis [29]): 93%; Inhibition of growth of phytopathogenic fungi colonies, % Rhyzoctonia aderholdii test laboratory (Rhyzoctonia aderholdii [30]): 100%
3 | O=C(NP(=O)(Nc1ccc(Cl)cc1[N+](=O)[O-])Nc1ccc(Cl)cc1[N+](=O)[O-])c1ccc(Cl)cc1 [Example 14, para-chlorobenzoylamidophosphoric acid di-para-chloro--ortho-nitroanilide] | 93% | 39% | 55% | 48% | 49% | 100% | 5% | 0% | 71% | 100% | 98% | 34% | 67% | 93% | 100% | soluble in water, alcohols, acetone | 100% | 40% | 56% | 50% | Inhibition of growth of phytopathogenic fungi colonies, % Venturia inaequalis test laboratory (Venturia inaequalis [20]): 50%; Inhibition of growth of phytopathogenic fungi colonies, % Fusarium culmorum Tests laboratory (Fusarium culmorum [21]): 100%; Inhibition of growth of phytopathogenic fungi colonies, % Aspergillus niger test laboratory (Aspergillus niger [22]): 6%; Inhibition of growth of phytopathogenic fungi colonies, % Botrytis cinereae test laboratory (Botrytis cinereae [23]): 0%; Inhibition of growth of phytopathogenic fungi colonies, % Penicillium cyclopium Tests laboratory (Penicillium cyclopium [24]): 79%; Inhibition of growth of phytopathogenic fungi colonies, % Diplodia zeae test laboratory (Diplodia zeae [25]): 100%; Inhibition of growth of phytopathogenic fungi colonies, % Botrytis allii test laboratory (Botrytis allii [26]): 100%; Inhibition of growth of phytopathogenic fungi colonies, % Rhyzoctonia violaceae test laboratory (Rhyzoctonia violaceae [27]): 35%; Inhibition of growth of phytopathogenic fungi colonies, % Rhoma betae test laboratory (Rhoma betae [28]): 68%; Inhibition of growth of phytopathogenic fungi colonies, % Aspergillus fumigatis Tests laboratory (Aspergillus fumigatis [29]): 100%; Inhibition of growth of phytopathogenic fungi colonies, % Rhyzoctonia aderholdii test laboratory (Rhyzoctonia aderholdii [30]): 100%

— patent publication EP0407583A1, “DERIVATIVES OF DICHLOR[…] ACYLAMIDO[…] AND INSECTICIDAL, FU[…] HEMATOCIDAL PREPARATIONS BASED ON THEM” (priority 1989, dated 1990)
